Assay results: US11884681B2, “3H,4H,5H,6H,7H-pyrimido[4,5-b][1,4]oxazine-4,6-dione derivatives as TRPA1 inhibitors” (Boehringer Ingelheim International GmbH, priority 2021, dated 2024)

Tests used:
human TRPA1 ion channel = target: T1, human TRPA1 ion channel (Homo sapiens, UniProt O75762); assay: Assay A: TRPA1 assay (FLIPR calcium, AITC agonism); format: cell-based; conditions: compounds of the invention; HEK293 over-expressing human TRPA1, AITC final 10 μM, FLIPRtetra; read-out: hTRPA1 IC50
T1 construct: host or cells: HEK293
T1 sequence (O75762 whole entry): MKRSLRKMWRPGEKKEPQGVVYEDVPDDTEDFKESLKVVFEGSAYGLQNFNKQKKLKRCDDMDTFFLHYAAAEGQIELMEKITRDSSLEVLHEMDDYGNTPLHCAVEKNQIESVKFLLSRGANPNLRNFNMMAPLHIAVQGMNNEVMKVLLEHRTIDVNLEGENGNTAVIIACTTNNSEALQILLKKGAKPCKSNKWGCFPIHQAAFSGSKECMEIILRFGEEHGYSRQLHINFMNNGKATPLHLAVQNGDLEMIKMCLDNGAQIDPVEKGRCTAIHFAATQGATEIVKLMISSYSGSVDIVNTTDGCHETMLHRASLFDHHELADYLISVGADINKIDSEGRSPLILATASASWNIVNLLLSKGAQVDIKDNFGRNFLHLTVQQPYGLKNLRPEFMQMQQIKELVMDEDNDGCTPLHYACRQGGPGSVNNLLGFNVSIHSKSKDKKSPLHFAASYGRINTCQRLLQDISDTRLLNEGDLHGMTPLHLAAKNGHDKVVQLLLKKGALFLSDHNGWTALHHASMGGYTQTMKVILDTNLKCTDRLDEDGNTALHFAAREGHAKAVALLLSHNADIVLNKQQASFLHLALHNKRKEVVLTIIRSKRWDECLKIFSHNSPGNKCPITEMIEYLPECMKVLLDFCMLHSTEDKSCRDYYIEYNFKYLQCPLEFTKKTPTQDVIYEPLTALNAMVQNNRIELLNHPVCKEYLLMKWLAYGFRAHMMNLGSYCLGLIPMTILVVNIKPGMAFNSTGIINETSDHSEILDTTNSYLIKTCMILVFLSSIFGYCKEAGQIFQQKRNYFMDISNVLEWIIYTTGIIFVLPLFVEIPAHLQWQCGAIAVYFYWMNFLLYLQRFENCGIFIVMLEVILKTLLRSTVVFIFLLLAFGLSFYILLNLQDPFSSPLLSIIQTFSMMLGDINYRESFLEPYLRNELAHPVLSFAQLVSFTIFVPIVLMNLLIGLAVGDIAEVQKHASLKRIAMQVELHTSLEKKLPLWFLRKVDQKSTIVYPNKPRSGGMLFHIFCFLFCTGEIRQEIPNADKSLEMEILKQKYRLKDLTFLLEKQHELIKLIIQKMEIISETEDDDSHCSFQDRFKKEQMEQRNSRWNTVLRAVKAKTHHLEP
Experimental: A human HEK293 cell line over-expressing the human TRPA1 ion channel (Perkin Elmer, Product No. AX-004-PCL) is used as a test system for compound efficacy and potency. Compound activity is determined by measuring the effect of compounds on intracellular calcium concentration induced by AITC (Allylisothiocyanat) agonism in a FLIPRtetra system (Molecular Devices).
The cells are obtained as frozen cells in cryo-vials and stored until use at −150° C. Cells are grown in culture medium (MEM/EBSS medium with 10% FCS and 0.4 mg/ML Geneticin). […] For sub-culturing cells are detached from flasks by Versene. At the day before the assay, cells are detached, washed twice with medium (MEM/EBSS medium with 10% FCS) and 20000 cells in 20 μl/well are seeded to Poly D-Lysin biocoated 384-well plates (black, clear bottom, Cat. 356697) from Corning. Plates are incubated for 24 hours at 37° C./5% CO2 before use in the assay.
The test compounds are dissolved in 100% DMSO at a concentration of 10 mM and in a first step diluted in DMSO to a concentration of 5 mM, followed by serial dilution steps in 100% DMSO. Dilution factor and number of dilution steps may vary according to needs. Typically 8 different concentrations by 1:5 dilutions are prepared, further intermediate dilutions (1:20) of the substances are carried out with HBSS/HEPES buffer (1×HEPES, Cat. 14065 from Gibco, 20 mM HEPES, Cat. 83264 from SIGMA, 0.1% BSA Cat. 11926 from Invitrogen, pH 7.4
At the assay day cells are washed 3× with assay puffer, 20 μL buffer remaining in the wells after washing. 10 μL Ca6 kit (Cat. R8191 MolecularDevices) loading buffer in HBSS/HEPES is added to the cells and the plates are incubated with lid for 120 minutes at 37°/5% CO2. […] Finally 10 μL of the agonist AITC 50 μM dissolved in HBSS/HEPES buffer/0.05% DMSO (final concentration 10 μM) is added to the wells followed by an additional read on the FLIPRtetra device for 10 minutes. The area under the signal curve (AUC) after AITC addition is used for IC50/% inhibition calculations
Data Evaluation and Calculation:
Each assay microtiter plate contains wells with vehicle (1% DMSO) controls instead of compound as controls for AITC induced luminescence (100% CTL; high controls) and wells with vehicle controls without AITC as controls for non-specific changes in luminescence (0% CTL; low controls).
The analysis of the data is performed by the calculation of the area under signal curve of the individual wells. Based on this values the % value for the measurement of each substance concentration is calculated (AUC(sample)−AUC(low))*100/(AUC(high)−AUC(low)) using MegaLab software (in house development). The IC50 values are calculated from the % control values using MegaLab software. Calculation: [y=(a−d)/(1+(x/c)^b)+d], a=low value, d=high value; x=conc M; c=IC50 M; b=hill; y=% ctrl

[1] = Assay B: Microsomal clearance; format: in vitro ADME, human; conditions: compounds of the invention; pooled liver microsomes 1 mg/ml, 1 μM compound, 37° C., NADPH
Experimental: Assay B: Microsomal Clearance:
The metabolic degradation of the test compound is assayed at 37° C. with pooled liver microsomes. The final incubation volume of 100 μl per time point contains TRIS buffer pH 7.6 at RT (0.1 M), magnesium chloride (5 mM), microsomal protein (1 mg/ml) and the test compound at a final concentration of 1 μM.
Following a short preincubation period at 37° C., the reactions are initiated by addition of beta-nicotinamide adenine dinucleotide phosphate, reduced form (NADPH, 1 mM) and terminated by transferring an aliquot into solvent after different time points (0, 5, 15, 30, 60 min). Additionally, the NADPH-independent degradation is monitored in incubations without NADPH, terminated at the last time point. The [%] remaining test compound after NADPH independent incubation is reflected by the parameter c(control) (metabolic stability). The quenched incubations are pelleted by centrifugation (10000 g, 5 min).
An aliquot of the supernatant is assayed by LC-MS/MS for the amount of parent compound. The half-life (t1/2 INVITRO) is determined by the slope of the semilogarithmic plot of the concentration-time profile.
The intrinsic clearance (CL_[…]) is calculated by considering the amount of protein in the incubation: CL_[…] [μl/min/mg protein]=(Ln 2/(half-life [min]*protein content [mg/ml]))*1000 CL_[…]_INVIVO [ml/min/kg]=(CL_[…] [μL/min/mg protein]×MPPGL [mg protein/g liver]×liver factor [g/kg bodyweight])/1000 Qh [%]=CL [ml/min/kg]/hepatic blood flow [ml/min/kg])
(§1) Hepatocellularity, human: 120×10e6 cells/g liver
(§2) Liver factor, human 25.7 g/kg bodyweight
(§3) Blood flow, human 21 ml/(min×kg)

[2] = Assay C: Hepatocyte clearance; format: in vitro ADME, human; conditions: compounds of the invention; hepatocyte suspension, 5% species serum, 1 μM compound, up to 6 h
Experimental: Assay C: Hepatocyte Clearance
The metabolic degradation of the test compound is assayed in a hepatocyte suspension. Hepatocytes (cryopreserved) are incubated in Dulbecco's modified eagle medium (supplemented with 3.5 μg glucagon/500 mL, 2.5 mg insulin/500 mL and 3.75 mg/500 mL hydrocortison) containing 5% species serum.
The cells are incubated for six hours (incubator, orbital shaker) and samples (25 μl) are taken at 0, 0.5, 1, 2, 4 and 6 hours. Samples are transferred into acetonitrile and pelleted by centrifugation (5 min). The supernatant is transferred to a new 96-deepwell plate, evaporated under nitrogen and resuspended.
Decline of parent compound is analyzed by HPLC-MS/MS
CLint is calculated as follows CL_[…]=Dose/AUC=(CO/CD)/(AUD+clast/k)×1000/60. C0: initial concentration in the incubation [μM], CD: cell density of vital cells [10e6cells/mL], AUD: area under the data [μM×h], clast: concentration of last data point [μM], k: slope of the regression line for parent decline [h−1].
The calculated in vitro hepatic intrinsic clearance can be scaled up to the intrinsic in vivo hepatic Clearance and used to predict hepatic in vivo blood clearance (CL) by the use of a liver model (well stirred model). CL_[…]_INVIVO [ml/min/kg]=(CL_[…] [μL/min/10e6cells]×hepatocellularity [10e6 cells/g liver]×liver factor [g/kg bodyweight])/1000 CL [ml/min/kg]=CL_[…]_INVIVO [ml/min/kg]×hepatic blood flow [ml/min/kg]/(CL_[…]_INVIVO [ml/min/kg]+hepatic blood flow [ml/min/kg]) Qh [%]=CL [ml/min/kg]/hepatic blood flow [ml/min/kg])
as §1, §2, §3

Structure (SMILES)	IC50 (human TRPA1 ion channel)	human LM [1]	human Hepatocytes [2]
CN1C(=O)COc2ncn(Cc3nc(C[C@H](O)c4cc5cc(Cl)ccc5o4)no3)c(=O)c21 [Example 6]	0.051 µM	56 % Qh	37 % Qh
CN1C(=O)COc2ncn(Cc3nc(C[C@H](O)c4cc5cc(F)ccc5o4)no3)c(=O)c21 [Example 4]	0.039 µM	<23 % Qh	22 % Qh
Cc1ccc([C@@H](O)Cc2noc(Cn3cnc4c(c3=O)N(C)C(=O)CO4)n2)cc1 [Example 7]	0.12 µM	<23 % Qh	9 % Qh
CN1C(=O)COc2ncn(Cc3nc(C[C@H](O)c4ccc(I)cc4)no3)c(=O)c21 [Example 5]	0.039 µM	29 % Qh	22 % Qh
CN1C(=O)COc2ncn(Cc3nc(C[C@H](O)c4cc5ccccc5s4)no3)c(=O)c21 [Example 3]	0.027 µM	<23 % Qh	31 % Qh
CN1C(=O)COc2ncn(Cc3nc(C[C@H](O)c4ccc(Cl)cc4)no3)c(=O)c21 [Example 1, 3-({3-[(2S)-2-(4-chlorophenyl)-2-hydroxyethyl]-1,2,4-oxadiazol-5-yl}methyl)-5-methyl-3H,4H,5H,6H,7H-pyrimido[4,5-b][1,4]oxazine-4,6-dione]	0.057 µM	<23 % Qh	9 % Qh
CN1C(=O)COc2ncn(Cc3nc(C[C@H](O)c4cc5ccc(F)cc5s4)no3)c(=O)c21 [Example 2]	0.012 µM	<23 % Qh	34 % Qh
